Earlier results as cited in PMC7285658 (Chemical communications (Cambridge, England), 2020).

Target: RSK1/2
Conditions: selective inhibitor of RSK1/2

Ki: ~1000 nM
SMILES: CC(=O)O[C@@H]1[C@@H](OC(C)=O)[C@@H](O)[C@H](Oc2c(-c3ccc(O)cc3)oc3cc(O)cc(O)c3c2=O)O[C@H]1C [SL0101]
